According to article PMC9413440, “An Iterative Approach Guides Discovery of the FabI Inhibitor Fabimycin, a Late-Stage Antibiotic Candidate with In Vivo Efficacy against Drug-Resistant Gram-Negative Infections” (ACS Central Science, 2022):
≈ marks a conversion by molar mass, not a printed value. Like-named read-outs stand apart in the source and are kept apart here.

What was measured:
[1] = system: E. coli MG1655; assay: Selection of resistant mutants, mutant prevention concentration; assay type: cell-based, Escherichia coli; details: 32x MIC, 0 colonies
Method: (§1) Selection of resistant mutants
(§2) Resistant mutants were generated using the large inoculum method. Briefly, S. aureus 29213, E. coli MG1655, and A. baumannii 19606 (~1 x 1010 CFUs) was plated on 100-mm plates (E. coli and A. baumannii) or 150-mm plates (S. aureus) of MH agar containing either 128, 64, or 32 µg/mL fabimycin (for gram-negatives) or 0.125, 0.062, and 0.031 µg/mL fabimycin (for S. aureus). Plates were incubated at 37 °C for 48 h and counted for the presence of colony forming units.
(§3) Glycerol stocks of selected colonies were made, and resistant colonies confirmed by growing on agar plates containing the same concentration of fabimycin that they were generated at.
(§4) Sequencing of bacterial fabI
(§5) The FabI gene was amplified by PCR. Fabimycin-resistant colonies were picked and diluted in 100 µL sterile, nuclease-free H2O. […] A 10 µL portion of PCR reaction mixture was analyzed by agarose gel electrophoresis to confirm the single 1.4-kilobase pair product. […]
(§6) Candidate drugs were incubated with plasma and parent drug levels were monitored at various time points (generally t=0, 10, 20, 30, and 60 minutes) to determine the drug’s half-life in the presence of the chosen system. […] The supernatant was collected after centrifugation, and the sample analyzed by LC-MS where the percentage of compound remaining is plotted vs time to determine the drug’s half-life. […]

[2] = system: A. baumannii AR-0088; assay: MIC against infective strain of PK/thigh models; assay type: cell-based; details: Acinetobacter baumannii, AR0088; drug-resistant A. baumannii, infective strain of the PK study (AR-0088)
Method: (§7) II. Materials and Methods for Biological Experiments
(§8) S. aureus ATCC 29213 and E. coli MG1655 were obtained from the American Type Culture Collection (ATCC). E. coli BW25113 and E. coli JW5503 were obtained from the Keio Collection. AR-bank strains were obtained from the Centers for Disease Control and Prevention and FDA Antibiotic Resistance Isolate Bank.
(§9) Antimicrobial susceptibility tests
(§10) Susceptibility testing was performed in biological triplicate, unless noted otherwise, using the micro-dilution broth method as outlined by the Clinical and Laboratory Standards Institute. Bacteria were cultured with cation-adjusted Mueller Hinton broth (Sigma Aldrich, catalogue number: 90922). […]
Error bars represent the standard error of the mean of three biological replicates. All compounds evaluated in biological assays were ≥95% pure.

[3] = system: Vancomycin-resistant Enterococcus (VRE); assay: MIC, vancomycin-resistant Enterococcus strains; assay type: cell-based
Method: as §7, §8, §9, §10
NH3: m/z 391.2 → 171.0. Fabimycin: m/z 405.3 → 145.3. Power analysis was not used to determine the number of replicates. Error bars represent the standard error of the mean of three biological replicates. All compounds evaluated in biological assays were ≥95% pure.

[4] = assay type: in vitro ADME
Method: as §1, §2, §3, §4, §5, §6

For `Cc1c(CN(C)C(=O)/C=C/c2cnc3c(c2)CC[C@H](N)C(=O)N3)oc2ccccc12` [fabimycin], the “mutant prevention concentration (MPC)” value [1] was 64 µg/mL, the MIC [2] was 2 µg/mL (≈ 4.94 µM) and the MIC ([3]; ATCC 1593 / VRE) was 128 µg/mL (≈ 316 µM). For the same compound, the MIC ([3]; ATCC 1768 / VRE) was greater than 128 µg/mL, the MIC ([3]; ATCC 2059 / VRE, VRE ATCC 2059, read-out: MIC) was 64 µg/mL (≈ 158 µM) and the MIC ([3]; ATCC 2431 / VRE) was greater than 128 µg/mL. For the same compound, the MIC ([3]; ATCC 2574 / VRE) was greater than 128 µg/mL, the MIC ([3]; ATCC 3053 / VRE, VRE ATCC 3053, read-out: MIC) was 64 µg/mL (≈ 158 µM) and the MIC ([3]; ATCC 3183 / VRE, VRE ATCC 3183, read-out: MIC) was 64 µg/mL (≈ 158 µM). For the same compound, the MIC ([3]; ATCC 3190 / VRE) was greater than 128 µg/mL, the MIC ([3]; ATCC 3191 / VRE) was 128 µg/mL (≈ 316 µM) and the MIC ([3]; ATCC 29212 / VRE) was 128 µg/mL (≈ 316 µM). For the same compound, the plasma protein binding [4] was “lower plasma protein binding relative to Debio-1452”.
